Literature values in publication PMC4381587, “A novel PI3K inhibitor PIK-C98 displays potent preclinical activity against multiple myeloma” (Oncotarget, 2014).

What was measured:
[1] = test system: relapsed indolent lymphoma; parameters: method as in PMID 24450857, PMID 24450858; settings: phase II, single agent; cited from earlier work
[2] = test system: relapsed chronic lymphocytic leukemia; parameters: method as in PMID 24450857, PMID 24450858; settings: phase II, single agent; cited from earlier work

Q: Which total response rate [1] does the source give for CC[C@H](Nc1ncnc2[nH]cnc12)c1nc2cccc(F)c2c(=O)n1-c1ccccc1 [idelalisib] here?
A: The total response rate was 57%.

Q: And the overall complete rate [2]?
A: Its overall complete rate is 72%.
